Key:
α-glucosidase = α-glucosidase inhibition, crude enzyme preparation from rat small intestine mucous membrane; assay type: biochemical
Protocol: (2) A crude enzyme preparation obtained from rat small intestine mucous membrane prepared according to the method as described in Arne Dahlqvist, Anal. Biochem., 7:18-25 (1964) was used to measure the activity of inhibiting α-glucosidase of agarotetraose or agarohexaose prepared in Referential Example 1 in vitro as follows.
For the enzymatic reaction, 80 μl of a solution of sucrose, maltose, treharose or soluble starch as a substrate in 10 mM phosphate buffer (pH 7.0) at a final concentration of 100 mM (0.5% in case of soluble starch) was added to 10 μl of a test sample solution appropriately diluted with the same buffer. 10 μl of the crude enzyme solution prepared from rat small intestine was added thereto. The mixture was reacted at 37° C. for 20 minutes. The enzymatic activity was determined as follows as the amount of glucose generated in the reaction mixture: 3 ml of a reagent for glucose measurement (Wako Pure Chemical Industries) was added to the reaction mixture, reaction was carried out at 37° C. for 5 minutes, and then the absorbance at 505 nm was measured. The inhibitory activity on the digestion of each substrate was expressed as a remaining activity (%) against the control, which was calculated based on the activity measured as described above for each of four different concentrations. The remaining activities (%) on the respective substrates in the presence of agarotetraose are shown in Table 2, whereas the remaining activities (%) on the respective substrates in the presence of agarohexaose are shown in Table 3.

human TGF-β = experiment: TGF-β production from DSEK cells (ELISA); assay type: cell-based; details: DSEK culture supernatant
Protocol: (§1) 150 μl of a culture supernatant was collected from a well containing a culture of DSEK cells over time at intervals of 24 hours. The effects of agarobiose on the production (expression) of cytokines (human TGF-β, human FGF-β and human IL-10) from the cell were determined using ELISA kits specific for the respective cytokines (from Intergen for human FGF-β and human IL-10; and from Promega for human TGF-β).

RAW264.7 cells = experiment: LPS-induced IL-10 production in RAW264.7 cells; assay type: cell-based; details: 5 μl of 10 mM solution per 0.5 ml, 5 hours before LPS; 18 hours; FIG. 18
Protocol: RAW264.7 cells (ATCC TIB 71) were suspended in Dulbecco's modified Eagle's medium (Bio Whittaker, 12-604F) containing 10% fetal calf serum (Gibco) at a concentration of 3×10^5 cells/ml. 0.5 ml of the suspension was added to each well of a 48-well microtiter plate and the plate was incubated at 37° C. overnight in the presence of 5% CO2. 5 μl of a solution containing agarobiose or agarohexaose in Referential Example 1 at a concentration of 10 mM in water was added to the well. After incubation for additional 5 hours, 5 μl of a solution of lipopolysaccharide (LPS, Sigma, L-2012) at a concentration of 100 μg/ml in water was added the well. After incubation for 18 hours, a culture supernatant was collected. The content of interleukin 10 (IL-10) in the culture supernatant was measured using enzyme immuno sandwich assay. As a control, a group to which the sample or the LPS aqueous solution was not added was provided. All of the measurements were carried out in duplicate.

human FGF-β = experiment: FGF-β production from DSEK cells (ELISA); assay type: cell-based; details: DSEK culture supernatant
Protocol: as §1

[1] = system: enzymes involved in the synthesis of prostaglandin E2 from arachidonic acid; experiment: Prostaglandin E2 generation from arachidonic acid, sample added directly to crude enzyme fraction; assay type: biochemical; details: 1 μL of 100 mM agarobiose, 100 mM agarohexaose, 10 mM DGE or 13 mM nimesulide added to 100 μL crude enzyme fraction; FIG. 15
Protocol: 2.5 μL of 200 mM aqueous solution of glutathione, 2.5 μL of a suspension containing L-adrenaline at a concentration of 200 mM in water, and 1 μL of 100 mM aqueous solution of agarobiose, 100 mM aqueous solution of agarohexaose or 10 mM aqueous solution of DGE as a sample were added to 100 μL of the control sample from the crude enzyme fraction prepared in Example 15. 1 μL of water was added as a negative control. 1 μL of 13 mM nimesulide (Cayman, 70640) solution was added as a positive control. 1 μL of 3 mM arachidonic acid solution was then added to start the reaction. The mixture was reacted at 37° C. for 5 minutes. The reaction was stopped by heating at 100° C. for 2 minutes. The content of prostaglandin E2 in the reaction mixture was measured using Prostaglandin E2 ELISA Kit.

DSEK cells = experiment: Growth of DSEK cells (in vitro rheumatoid model), WST-1; assay type: cell-based, human
Protocol: DSEK cell is a fibroblast cell line established from a synovial membrane of a human patient with chronic rheumatism and is held at Department of Second Internal Medicine, Integrated Medical Center, Saitama Collage of Medicine as an in vitro rheumatoid model. DSEK cells were cultured in Iscov-MEM medium (IMDM: Gibco-BRL) containing 10% FBS (Bio Whittaker) at 37° C. in the presence of 5% CO2 to saturation of culture vessel. The cells were suspended in the same medium at a concentration of 3×10^4 cells/ml using a trypsin-EDTA solution (Bio Whittaker). 200 μl of the suspension was dispensed into each well of a 96-well microtiter plate (Falcon). […]
10 μl of Premix WST-1 (Takara Shuzo, MK400) was added to one of the wells at intervals of 24 hours up to 72 hours after the medium change. The mixture was reacted at 37° C. for 3.5 hours. The degree of cell growth was expressed by a value obtained by subtracting the absorbance at 650 nm (A650) from the absorbance at 450 nm (A450).

[2] = substrate Soluble starch, 0.2 mM
[3] = substrate Soluble starch, 0.5 mM
[4] = substrate Soluble starch, 1.0 mM
[5] = substrate Soluble starch, 2.0 mM

Structure (SMILES)	Remaining activity (%) (α-glucosidase; substrate Maltose, 0.2 mM)	Remaining activity (%) (α-glucosidase; substrate Maltose, 0.5 mM)	Remaining activity (%) (α-glucosidase; substrate Maltose, 1.0 mM)	Remaining activity (%) (α-glucosidase; substrate Maltose, 2.0 mM)	Remaining activity (%) (α-glucosidase; [2])	Remaining activity (%) (α-glucosidase; [3])	Remaining activity (%) (α-glucosidase; [4])	Remaining activity (%) (α-glucosidase; [5])	Remaining activity (%) (α-glucosidase; substrate Trehalose, 0.2 mM)	Remaining activity (%) (α-glucosidase; substrate Trehalose, 0.5 mM)	Remaining activity (%) (α-glucosidase; substrate Trehalose, 1.0 mM)	Remaining activity (%) (α-glucosidase; substrate Trehalose, 2.0 mM)	LPS-induced IL-10 production (RAW264.7 cells)	production of prostaglandin E2 from arachidonic acid [1]	further results
OCC1OC(OC2C3COC2C(O)C(OC2C(O)C(CO)OC(OC4C5COC4C(O)C(O)O5)C2O)O3)C(O)C(O)C1O (stereo not shown) [Agarotetraose, agarotetraose]	97%	95%	100%	98%	100%	96%	97%	91%	100%	100%	100%	93%			
OC[C@H]1O[C@@H](O[C@H]2[C@H]3OC[C@@H]2OC(O)[C@H]3O)[C@H](O)[C@@H](O)[C@H]1O (mixture of isomers) [Agarobiose, agarobiose]													inhibition of LPS-induced IL-10 production	not suppressed	production of human TGF-β (human TGF-β): activities of inhibiting the production; production of human FGF-β (human FGF-β): activities of inhibiting the production; Degree of cell growth (A450-650) (DSEK cells; 50 μM, 24 hr): 1.00 A450-650; Degree of cell growth (A450-650) (DSEK cells; 50 μM, 48 hr): 1.49 A450-650; Degree of cell growth (A450-650) (DSEK cells; 50 μM, 72 hr): 1.27 A450-650; Degree of cell growth (A450-650) (DSEK cells; 100 μM, 24 hr): 0.88 A450-650; Degree of cell growth (A450-650) (DSEK cells; 100 μM, 48 hr): 1.87 A450-650; Degree of cell growth (A450-650) (DSEK cells; 100 μM, 72 hr): 1.26 A450-650; Degree of cell growth (A450-650) (DSEK cells; 200 μM, 24 hr): 0.89 A450-650; Degree of cell growth (A450-650) (DSEK cells; 200 μM, 48 hr): 1.50 A450-650; Degree of cell growth (A450-650) (DSEK cells; 200 μM, 72 hr): 0.93 A450-650; Degree of cell growth (A450-650) (DSEK cells; 400 μM, 24 hr): 0.87 A450-650; Degree of cell growth (A450-650) (DSEK cells; 400 μM, 48 hr): 0.52 A450-650; Degree of cell growth (A450-650) (DSEK cells; 400 μM, 72 hr): 0.47 A450-650; Degree of cell growth (A450-650) (DSEK cells; 800 μM, 24 hr): 0.54 A450-650; Degree of cell growth (A450-650) (DSEK cells; 800 μM, 48 hr): 0.45 A450-650; Degree of cell growth (A450-650) (DSEK cells; 800 μM, 72 hr): 0.56 A450-650; IC50 (DSEK cells; 72 hours, read-out: concentration that resulted in the inhibition of the growth of half cells (IC50)): 169 µM
OCC1OC(OC2C3COC2C(O)C(OC2C(O)C(CO)OC(OC4C5COC4C(O)C(OC4C(O)C(CO)OC(OC6C7COC6C(O)C(O)O7)C4O)O5)C2O)O3)C(O)C(O)C1O (stereo not shown) [Agarohexaose, agarohexaose]	98%	100%	91%	92%	100%	97%	96%	97%	100%	100%	100%	93%	inhibition of LPS-induced IL-10 production	not suppressed	

Source: US6608032B1, “Medicinal compositions” (Takara Shuzo Co., Ltd., priority 1999, dated 2003)
